The subject of one data set is rabbit saphenous vein. The data set is described as follows: Rabbit Saphenous Vein Contraction.
The conditions of data set [1]: in vivo; cited from earlier work.
The next data set has as its system migraine. The settings on record: in vivo; cited from earlier work.
Another data set has as its target T1, 5-HT1F (Homo sapiens, UniProt P30939).
T1 construct: expressed in transfected cells; host or cells: Ltk- cells
The data set is described as follows: Radioligand binding ([3H]5-HT displacement), 5-HT1F.

Data set [2] relates to neuronal protein extravasation. The data set can be described thus: Protein extravasation assay (dura, stimulation of trigeminal ganglion). The format is in vivo, guinea pig.
In data set [3] the test system is 5-HT1F receptor. The settings on record: Weinshank et al., WO93/14201; cited from earlier work.
Another data set has as its system neurogenic inflammation. The settings on record: dose similar to that required to treat acute migraine in humans; cited from earlier work.
The conditions of data set [4]: Humphrey et al.; cited from earlier work.
The target of data set [5] is T2, 5-HT1F receptor (Homo sapiens, UniProt P30939).
T2 sequence (P30939 1-366): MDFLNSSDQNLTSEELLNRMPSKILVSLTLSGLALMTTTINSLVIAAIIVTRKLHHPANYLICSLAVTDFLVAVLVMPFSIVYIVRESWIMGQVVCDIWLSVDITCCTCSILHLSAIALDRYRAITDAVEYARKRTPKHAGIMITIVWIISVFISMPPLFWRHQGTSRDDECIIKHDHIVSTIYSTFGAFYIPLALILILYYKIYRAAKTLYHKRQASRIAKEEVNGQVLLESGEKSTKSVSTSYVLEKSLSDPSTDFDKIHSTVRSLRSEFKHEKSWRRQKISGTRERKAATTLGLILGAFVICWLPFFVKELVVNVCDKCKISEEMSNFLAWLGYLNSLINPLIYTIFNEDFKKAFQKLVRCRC
The data set is described as follows: Measurement of cAMP formation: inhibition of forskolin stimulated cAMP in NIH3 T3 cells transfected with the 5-HT1F receptor. The data set is classed as cell-based. The settings on record: for agonist character at the 5-HT1F receptor in the cAMP assay: forskolin stimulated cAMP, transfected NIH3 T3 cells. For orientation: cAMP levels reflect the balance of adenylyl cyclase and phosphodiesterase activity.

The test system of a further data set is vasoconstriction. The settings on record: Goodman and Gilman; cited from earlier work.
[6] abbreviates: Oryctolagus cuniculus, read-out: Corrected Vasoconstriction EC50.
Where [7] appears, read: Oryctolagus cuniculus; read-out: Rabbit Saphenous Vein Contraction EC50.
Setting [8] is: Cavia porcellus, iv, read-out: Inhibition of Protein Extravasation i.v. ID50.
Where [9] appears, read: Oryctolagus cuniculus, read-out: Rabbit Saphenous Vein Contraction (% Max. KCl).
The mark [10] stands for this setting: i.v., 10 minutes before trigeminal ganglion stimulation; dose inhibiting extravasation by 50%.

Where a name gives a salt, the structure may show the parent alone. Read-outs that look alike come from different tables or passages of the source. Where only a bound is given, the exact number is not on record here.

For orientation: EC50 means the concentration needed to bring the measured effect to its halfway point. In the case of `CNS(=O)(=O)Cc1ccc2[nH]cc(CCN(C)C)c2c1.O=C(O)CCC(=O)O` [Compound I, 3-[2-(dimethylamino)ethyl]-N-methyl-1H-indole-5-methanesulfonamide butane-1,4-dioate (1:1)], the values for the EC50 in the data set on rabbit saphenous vein (setting [6]) and with rabbit saphenous vein (setting [7]) were 10.3 nM and 660 nM, respectively. Also, in [1], the “contraindications as products of vasoconstrictive activity” value is “coronary vasospasm, hypertension and angina”. Also, the “efficacy in the treatment of migraine” value with migraine is reported as “effective in the treatment of migraine”. At 5-HT1F, the “5-HT1F activity (in words)” value was “significant component of 5-HT1F activity”. The ED50 in data set [2] (setting [8]) was found to be 2.6e-05 µmol/kg. The “Inhibition of Protein Extravasation i.v. ID50” value in data set [2] (iv) came to 2.6e-08 mmol/kg. The “affinity for the 5-HT1F receptor” value in the data set with 5-HT1F receptor [3] is recorded as “high affinity”. Also, in the data set with neurogenic inflammation, the “blockade of neurogenic inflammation” value was “blocked”. Besides, the “agonist at 5-HT1-like receptors, hydrophilicity” value in data set [4] is given as “hydrophilic agonist at 5-HT-1-like receptors”. In addition, in data set [4], the “crossing of the blood-brain barrier” value is on record as “does not cross the blood-brain barrier”.

Consider `Cn1cc(CCN2CCC(c3c[nH]c4ccc(F)cc34)CC2)cn1` [Compound II, 5-fluoro-3-<1-<2-<1-methyl-1H-pyrazol-4-yl >ethyl>-4-piperidinyl>-1H-indolehydrochloride], for which the EC50 in the data set on rabbit saphenous vein (Oryctolagus cuniculus; read-out: Corrected Vasoconstriction EC50) was determined as 72.9 nM; with rabbit saphenous vein (setting [7]) it was 1000 nM. The Emax with rabbit saphenous vein (Oryctolagus cuniculus; read-out: Rabbit Saphenous Vein Contraction (% Max. KCl)) was found to be 13.7%. Besides, the ED50 in [2] (Cavia porcellus, iv; read-out: Inhibition of Protein Extravasation i.v. ID50) worked out at 8e-07 µmol/kg. In [2] (guinea pig, in vivo, iv), the “Inhibition of Protein Extravasation i.v. ID50” value was 8e-10 mmol/kg.

For `Oc1ccc2[nH]cc(C3CCNCC3)c2c1` [Compound III, 5-hydroxy-3-(4-piperidinyl)-1-H-indole oxalate], the ED50 in [2] (setting [8]) stood at 8.9e-06 µmol/kg.

Take `CCN(CC)C1CCc2cccc(Cl)c2C1.Cl` (centres unmarked) [Compound IV, 8-chloro-2-diethylamino-1,2,3,4-tetrahydronaphthalene hydrochloride]: the EC50 in the data set on rabbit saphenous vein (setting [6]) came out at 1.49 nM; in the data set with rabbit saphenous vein (setting [7]), 1000 nM. Moreover, the Emax in the data set with rabbit saphenous vein (setting [9]) stood at 67.2%. Moreover, at 5-HT1F, the “5-HT1F activity (in words)” value is on record as “significant component of 5-HT1F activity”. The ED50 in [2] (setting [8]) was 0.00012 µmol/kg. Also, the “Inhibition of Protein Extravasation i.v. ID50” value in data set [2] (setting [10]) came to 1.2e-07 mmol/kg.

Turning to `CN(C)C1CCc2[nH]c3ccc(O)cc3c2C1` (centres unmarked) [Compound V, 6-hydroxy-3-dimethylamino-1,2,3,4-tetrahydrocarbazole], the EC50 was above 8030 nM in the data set with rabbit saphenous vein (setting [6]) and above 100000 nM in the data set with rabbit saphenous vein (Oryctolagus cuniculus, read-out: Rabbit Saphenous Vein Contraction EC50). Besides, the Emax in the data set on rabbit saphenous vein (setting [9]) worked out at 12.4%. In data set [2] (setting [8]), the ED50 turned out to be 8.7e-06 µmol/kg. Besides, in [2] (setting [10]), the “Inhibition of Protein Extravasation i.v. ID50” value amounted to 8.7e-09 mmol/kg.

For the compound `CN1C[C@H](C(=O)N[C@]2(C)O[C@@]3(O)[C@@H]4CCCN4C(=O)[C@H](Cc4ccccc4)N3C2=O)C[C@@H]2c3cccc4[nH]cc(c34)C[C@H]21` [Dihydroergotamine], on 5-HT1F receptor [5], the “agonist character at the 5-HT1F receptor in the cAMP assay” value is given as “partial agonist”. Moreover, the “cAMP assay Emax at the 5-HT1F receptor” value on 5-HT1F receptor [5] (percent of maximal effect of serotonin, forskolin 10 μM) came to 49.5%. Further, the vasoconstrictor activity entry in the data set on vasoconstriction is “potent vasoconstrictor”. Further, in data set [2] (setting [8]), the ED50 came to 2.43e-05 µmol/kg. In addition, the “inhibition of neuronal protein extravasation (in words)” value in [2] (i.v.) is listed as “fully effective inhibitor”. Besides, the “ratio of extravasation in the dura, stimulated side compared to unstimulated side” value in [2] (i.v.; saline controls approximately 2.0 in rats, 1.8 in guinea pigs) turned out to be 1.0.

Consider `NCCc1c[nH]c2ccc(O)cc12` [serotonin], for which the “agonist character at the 5-HT1F receptor in the cAMP assay” value at 5-HT1F receptor [5] is reported as “maximal effect”.

The values are drawn from US5698571A, “5-HT1F mediated inhibition of neurogenic meningeal extravasation: a method for the treatment of migraine” (Eli Lilly and Company, priority 1994, dated 1997).
